{"source": "patent US8946383B2", "about": "“Obtaining cocoa extracts rich in bioactive peptides with ACE and PEP enzyme inhibitory activity” (Naturex, priority 2008, dated 2015)", "system": "CL4176 transgenic strain of C. elegans", "assay": "Paralysis assay after induction of Ab peptide expression in C. elegans", "assay_type": "in vivo, Caenorhabditis elegans", "settings": "third day after inducing Ab peptide expression at 23° C.; 100 μl of fraction per plate; ZPP 0.1 mM", "procedure": "An oxidative stress assay using the CL4176 transgenic strain of C. elegans was carried out, characterized by expressing the human amyloid beta-peptide (Abl-42) after temperature induction.\nPrior data in the literature indicate that the formation of amyloid beta-peptide plaques is preceded by oxidative stress (Drake et al, “Oxidative stress precedes fibrillar deposition of Alzheimer's disease amyloid beta-peptide (1-42) in a transgenic Caenorhabditis elegans model” Neurobiol Aging 2003, 24(3):415-20). Therefore, it is interesting to evaluate if the hypothetical reduction of fibrillar deposition of Ab peptides in the neurons produced by the action of a molecule or compound gives rise to greater resistance against oxidative stress treatments. Furthermore, the expression of said peptide in these transgenic animals produces a paralysis that can be evaluated after adding the molecule or compound of interest.\nTo carry out the experiment, worms of the CL4176 strain having a synchronized age by means of plate cultivation of NG at 16° C. were obtained. The eggs were collected in NG plates which contained 100 μl of each peptide fraction (F11, F12, F14 and F18). […] For the first 3 days after induction, the number of worms paralyzed in each assayed condition was analyzed. […] The plates were incubated at 23° C. and after 5 hours the total number of worms that survived treatment were counted.", "note": "Where a SMILES comes first, the peptide text is derived from it. The star is where a group is joined. Cbz = O=C(OCc1ccccc1)*"}
{"smiles": "O=C[C@@H]1CCCN1C(=O)[C@@H]1CCCN1C(=O)OCc1ccccc1", "note": "[Z-prolyl prolinal] (Cbz-Pro-Pro-aldehyde)", "values": [{"measurement": "percentage of non-paralyzed worms", "value": 99.44, "unit": "%"}]}
